Laboratory results: patent US20200288713A1, “PESTICIDALLY ACTIVE PYRAZOLE DERIVATIVES” (SYNGENTA PARTICIPATIONS AG, priority 2017, published 2020)
Read-outs that look alike come from different tables or passages of the source.

Experiments:
Format in all cases: in vivo
Diabrotica balteata = Diabrotica balteata (corn root worm) mortality test on maize sprouts; conditions: 96 h, application rate 200 ppm, L2 larvae on sprayed maize sprouts, assessed 4 days after infestation
Description: Diabrotica balteata (Corn Root Worm):
Maize sprouts placed onto an agar layer in 24-well microtiter plates were treated with aqueous test solutions prepared from 10′000 ppm DMSO stock solutions by spraying. After drying, the plates were infested with L2 larvae (6 to 10 per well). The samples were assessed for mortality 4 days after infestation.

Euschistus heros = Euschistus heros (neotropical brown stink bug) feeding/contact activity; conditions: 120 h
Description: Euschistus heros (Neotropical Brown Stink Bug): Feeding/Contact Activity
Soybean leaves on agar in 24-well microtiter plates were sprayed with aqueous test solutions prepared from 10′000 ppm DMSO stock solutions. After drying the leaves were infested with N2 nymphs. The samples were assessed for mortality 5 days after infestation.

Myzus persicae = Myzus persicae (green peach aphid) feeding/contact activity; conditions: foliar, 144 h
Description: Myzus persicae (Green Peach Aphid): Feeding/Contact Activity
Sunflower leaf discs were placed onto agar in a 24-well microtiter plate and sprayed with aqueous test solutions prepared from 10′000 ppm DMSO stock solutions. After drying, the leaf discs were infested with an aphid population of mixed ages. The samples were assessed for mortality 6 days after infestation.

Plutella xylostella = Plutella xylostella (diamond back moth) feeding/contact activity; conditions: 120 h
Description: Plutella xylostella (Diamond Back Moth): Feeding/Contact Activity
24-well microtiter plates with artificial diet were treated with aqueous test solutions prepared from 10′000 ppm DMSO stock solutions by pipetting. After drying, the plates were infested with L2 larvae (10 to 15 per well). The samples were assessed for mortality 5 days after infestation.

Spodoptera littoralis = Spodoptera littoralis (Egyptian cotton leaf worm) feeding/contact activity; conditions: foliar, 72 h
Description: Spodoptera littoralis (Egyptian cotton leaf worm): Feeding/contact activity Cotton leaf discs were placed onto agar in 24-well microtiter plates and sprayed with aqueous test solutions prepared from 10′000 ppm DMSO stock solutions. After drying the leaf discs were infested with five L1 larvae. The samples were assessed for mortality 3 days after infestation.

Tetranychus urticae = Tetranychus urticae (two-spotted spider mite) feeding/contact activity; conditions: foliar, 192 h, read-out: mortality on mixed population (mobile stages)
Description: Tetranychus urticae (Two-Spotted Spider Mite): Feeding/Contact Activity
Bean leaf discs on agar in 24-well microtiter plates were sprayed with aqueous test solutions prepared from 10′000 ppm DMSO stock solutions. After drying the leaf discs were infested with a mite population of mixed ages. The samples were assessed for mortality on mixed population (mobile stages) 8 days after infestation.

Thrips tabaci = Thrips tabaci (onion thrips) feeding/contact activity; conditions: foliar, 144 h
Description: Thrips tabaci (Onion Thrips): Feeding/Contact Activity
Sunflower leaf discs were placed on agar in 24-well microtiter plates and sprayed with aqueous test solutions prepared from 10′000 ppm DMSO stock solutions. After drying the leaf discs were infested with a thrips population of mixed ages. The samples were assessed for mortality 6 days after infestation.

[1] = application rate 200 ppm, N2 nymphs on sprayed soybean leaves, assessed 5 days after infestation, read-out: mortality
[2] = application rate 200 ppm, aphid population of mixed ages on sprayed sunflower leaf discs, assessed 6 days after infestation, read-out: mortality
[3] = application rate 200 ppm, L2 larvae on treated artificial diet, assessed 5 days after infestation, read-out: mortality
[4] = application rate 200 ppm, L1 larvae on sprayed cotton leaf discs, assessed 3 days after infestation, read-out: mortality
[5] = application rate 200 ppm, mite population of mixed ages on sprayed bean leaf discs, assessed 8 days after infestation
[6] = application rate 200 ppm, thrips population of mixed ages on sprayed sunflower leaf discs, assessed 6 days after infestation, read-out: mortality

Measured: mortality at 200 ppm

CCN(C(=O)c1cc(-c2cnn(-c3c(OC(F)F)c(C(F)(F)C(F)(F)F)nn3C)c2)ccc1C(F)(F)F)C1(C#N)CC1 [Compound 3, N-(1-cyanocyclopropyl)-5-[1-[4-(difluoromethoxy)-2-methyl-5-(1,1,2,2,2-pentafluoroethyl)pyrazol-3-yl]pyrazol-4-yl]-N-ethyl-2-(trifluoromethyl)benzamide]
≥ 80%: Diabrotica balteata | Euschistus heros; [1] | Myzus persicae; [2] | Plutella xylostella; [3] | Spodoptera littoralis; [4] | Tetranychus urticae; [5] | Thrips tabaci; [6]

C#CCN(C(=O)c1cc(-c2cnn(-c3c(OC(F)F)c(C(F)(F)C(F)(F)F)nn3C)c2)ccc1C(F)(F)F)C1(C#N)CC1 [Compound 10]
≥ 80%: Euschistus heros; [1] | Myzus persicae; [2] | Plutella xylostella; [3] | Spodoptera littoralis; [4] | Tetranychus urticae; [5] | Thrips tabaci; [6]

Cn1nc(C(F)(F)C(F)(F)F)c(OC(F)F)c1-n1cc(-c2ccc(C(F)(F)F)c(C(=O)N(CC#N)C3(C#N)CC3)c2)cn1 [Compound 8, N-(1-cyanocyclopropyl)-N-(cyanomethyl)-5-[1-[4-(difluoromethoxy)-2-methyl-5-(1,1,2,2,2-pentafluoroethyl)pyrazol-3-yl]pyrazol-4-yl]-2-(trifluoromethyl)benzamide]
≥ 80%: Euschistus heros; [1] | Myzus persicae; [2] | Plutella xylostella; [3] | Spodoptera littoralis; [4] | Tetranychus urticae; [5] | Thrips tabaci; [6]

Cn1nc(C(F)(F)C(F)(F)F)c(OC(F)F)c1-n1cc(-c2ccc(C(F)(F)F)c(C(=O)N(CC3CC3)C3(C#N)CC3)c2)cn1 [Compound 5, N-(1-cyanocyclopropyl)-N-(cyclopropylmethyl)-5-[1-[4-(difluoromethoxy)-2-methyl-5-(1,1,2,2,2-pentafluoroethyl)pyrazol-3-yl]pyrazol-4-yl]-2-(trifluoromethyl)benzamide]
≥ 80%: Euschistus heros; [1] | Myzus persicae; [2] | Plutella xylostella; [3] | Spodoptera littoralis; [4] | Thrips tabaci; [6]

Cn1nc(C(F)(F)C(F)(F)F)c(OC(F)F)c1-n1cc(-c2ccc(C(F)(F)F)c(C(=O)NC3(C#N)CC3)c2)cn1 [Compound 1, N-(1-cyanocyclopropyl)-5-[1-[4-(difluoromethoxy)-2-methyl-5-(1,1,2,2,2-pentafluoroethyl)pyrazol-3-yl]pyrazol-4-yl]-2-(trifluoromethyl)benzamide]
≥ 80%: Diabrotica balteata | Euschistus heros; [1] | Myzus persicae; [2] | Plutella xylostella; [3] | Spodoptera littoralis; [4] | Tetranychus urticae; [5] | Thrips tabaci; [6]

COCN(C(=O)c1cc(-c2cnn(-c3c(OC(F)F)c(C(F)(F)C(F)(F)F)nn3C)c2)ccc1C(F)(F)F)C1(C#N)CC1 [Compound 7, N-(1-cyanocyclopropyl)-5-[1-[4-(difluoromethoxy)-2-methyl-5-(1,1,2,2,2-pentafluoroethyl)pyrazol-3-yl]pyrazol-4-yl]-N-(methoxymethyl)-2-(trifluoromethyl)benzamide]
≥ 80%: Euschistus heros; [1] | Myzus persicae; [2] | Plutella xylostella; [3] | Spodoptera littoralis; [4] | Tetranychus urticae; [5] | Thrips tabaci; [6]

CN(C(=O)c1cc(-c2cnn(-c3c(OC(F)F)c(C(F)(F)C(F)(F)F)nn3C)c2)ccc1C(F)(F)F)C1(C#N)CC1 [Compound 2, N-(1-cyanocyclopropyl)-5-[1-[4-(difluoromethoxy)-2-methyl-5-(1,1,2,2,2-pentafluoroethyl)pyrazol-3-yl]pyrazol-4-yl]-N-methyl-2-(trifluoromethyl)benzamide]
≥ 80%: Diabrotica balteata | Euschistus heros; [1] | Myzus persicae; [2] | Plutella xylostella; [3] | Spodoptera littoralis; [4] | Tetranychus urticae; [5] | Thrips tabaci; [6]

Cn1nc(C(F)(F)C(F)(F)F)c(OC(F)F)c1-n1cc(-c2ccc(C(F)(F)F)c(C(=O)NC3CC3)c2)cn1 [Compound 4, N-cyclopropyl-5-[1-[4-(difluoromethoxy)-2-methyl-5-(1,1,2,2,2-pentafluoroethyl)pyrazol-3-yl]pyrazol-4-yl]-2-(trifluoromethyl)benzamide]
≥ 80%: Diabrotica balteata | Euschistus heros; [1] | Myzus persicae; [2] | Plutella xylostella; [3] | Spodoptera littoralis; [4] | Tetranychus urticae; [5] | Thrips tabaci; [6]

CC(=O)N(C(=O)c1cc(-c2cnn(-c3c(OC(F)F)c(C(F)(F)C(F)(F)F)nn3C)c2)ccc1C(F)(F)F)C1(C#N)CC1 [Compound 6, N-acetyl-N-(1-cyanocyclopropyl)-5-[1-[4-(difluoromethoxy)-2-methyl-5-(1,1,2,2,2-pentafluoroethyl)pyrazol-3-yl]pyrazol-4-yl]-2-(trifluoromethyl)benzamide]
≥ 80%: Euschistus heros; [1] | Myzus persicae; [2] | Plutella xylostella; [3] | Spodoptera littoralis; [4] | Tetranychus urticae; [5] | Thrips tabaci; [6]

CCOC(=O)N(C(=O)c1cc(-c2cnn(-c3c(OC(F)F)c(C(F)(F)C(F)(F)F)nn3C)c2)ccc1C(F)(F)F)C1(C#N)CC1 [Compound 9, ethyl N-(1-cyanocyclopropyl)-N-[5-[1-[4-(difluoromethoxy)-2-methyl-5-(1,1,2,2,2-pentafluoroethyl)pyrazol-3-yl]pyrazol-4-yl]-2-(trifluoromethyl)benzoyl]carbamate]
≥ 80%: Euschistus heros; in Glycine max | Myzus persicae | Plutella xylostella | Spodoptera littoralis | Tetranychus urticae | Thrips tabaci
